Literature values, collected in US20230287067A1, “HUMAN I[…] OF HEMO AND HHLA2 HUMAN ENDOGENOUS RETROVIRUSES (HERVS)” (priority 2020, published 2023).

Experiments:
[1] = system: HLA-A2; conditions: known property of control peptide
[2] = system: HLA-A24; conditions: known property of control peptide

Sequence | binding to HLA-A2 [1] | binding to HLA-A24 [2]
SYLIRALTL | not to HLA-A2 | binds strongly
WLLPGTSTV [agonist peptide derived from the tumor-associated antigen Brachyury] | bind strongly | –
